Reference: patent US12435051B2, “Dual modulator of mGluR5 and 5-HT2A receptor, and use thereof” (Vivozon Inc., priority 2020, dated 2025)

Tests used:
human 5-HT2AR = molecular target: T1, human 5-HT2AR (Homo sapiens, UniProt P28223); test: HTRF-based IP1 accumulation assay (5-HT2AR antagonistic effect); format: cell-based; settings: HEK293 cells overexpressing human 5-HT2AR; serotonin at EC80
T1 construct: expressed in transfected cells; host or cells: HEK293
Experimental: The 5-HT2AR antagonistic effect of the test compounds was confirmed by measuring the production amount of IP1 using the HEK293 cell line permanently overexpressing the human 5-HT2AR. The test compounds were dissolved in 100% DMSO to a final concentration of 10 mM. The starting concentration of 10 μM was prepared from the stock solution, followed by serial dilutions to prepare working solutions in a buffer containing lithium chloride (LiCl). The cells and compounds prepared in the test buffer were placed in a 96-well plate and incubated at room temperature for 10 minutes. Serotonin of EC80 concentration was added, followed by incubation at 37° C. for 30 minutes in a light-shielding state. To measure IP1 accumulation in cells, JP1-d2 acceptor and IP1-Cryptate donor-which are HTRF-based substances for fluorescence signals-were added and incubated for 1 hour at room temperature in a light-shielded state. The fluorescent emission signals of acceptor and donor were detected, and HTRF ratio values were substracted by mean value of serotonin control. The percentage of activation was calculated by normalization of the serotonin control (0%) and IP1 control (100%). The IC50 values of the test compounds are represented in Table 1. (+: 1,000-2,000 nM, ++: 500-1,000 nM, +++: 100-500 nM, ++++: less than 100 nM).

mGluR5 = molecular target: T2, mGluR5 (Homo sapiens, UniProt P41594); test: Fluorescence-based Ca2+ mobilization assay; format: cell-based; settings: HEK293 cells overexpressing mGluR5; L-glutamate at EC80
T2 construct: expressed in transfected cells; host or cells: HEK293
T2 sequence (P41594 21-1212): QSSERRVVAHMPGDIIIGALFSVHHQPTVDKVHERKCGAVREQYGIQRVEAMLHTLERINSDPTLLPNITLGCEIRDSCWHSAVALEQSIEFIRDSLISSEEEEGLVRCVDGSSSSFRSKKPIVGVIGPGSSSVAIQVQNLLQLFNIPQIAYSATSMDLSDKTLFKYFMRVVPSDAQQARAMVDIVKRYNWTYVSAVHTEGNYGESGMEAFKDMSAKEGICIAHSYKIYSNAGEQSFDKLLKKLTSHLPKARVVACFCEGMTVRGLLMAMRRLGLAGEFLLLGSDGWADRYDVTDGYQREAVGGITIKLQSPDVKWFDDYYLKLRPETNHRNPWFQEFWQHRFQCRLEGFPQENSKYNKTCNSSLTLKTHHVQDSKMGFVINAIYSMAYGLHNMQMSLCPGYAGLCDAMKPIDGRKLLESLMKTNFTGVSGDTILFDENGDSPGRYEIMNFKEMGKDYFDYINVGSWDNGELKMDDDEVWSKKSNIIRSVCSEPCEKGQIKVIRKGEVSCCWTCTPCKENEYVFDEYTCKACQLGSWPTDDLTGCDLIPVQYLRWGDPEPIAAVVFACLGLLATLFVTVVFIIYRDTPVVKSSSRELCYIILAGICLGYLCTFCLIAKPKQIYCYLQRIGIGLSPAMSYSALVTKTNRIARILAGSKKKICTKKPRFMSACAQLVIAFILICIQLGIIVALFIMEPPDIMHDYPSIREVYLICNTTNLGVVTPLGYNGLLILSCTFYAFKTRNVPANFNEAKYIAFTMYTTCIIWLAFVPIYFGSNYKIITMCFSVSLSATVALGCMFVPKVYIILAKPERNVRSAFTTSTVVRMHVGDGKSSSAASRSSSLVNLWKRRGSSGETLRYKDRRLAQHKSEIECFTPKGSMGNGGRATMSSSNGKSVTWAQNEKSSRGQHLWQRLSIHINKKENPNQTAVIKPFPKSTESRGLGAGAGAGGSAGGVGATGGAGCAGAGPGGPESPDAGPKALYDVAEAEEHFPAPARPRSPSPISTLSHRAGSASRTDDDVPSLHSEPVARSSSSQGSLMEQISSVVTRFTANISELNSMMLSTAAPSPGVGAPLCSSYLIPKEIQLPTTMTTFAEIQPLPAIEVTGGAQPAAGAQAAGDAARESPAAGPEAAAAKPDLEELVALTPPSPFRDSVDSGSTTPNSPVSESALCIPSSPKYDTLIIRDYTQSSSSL
Experimental: In order to measure the activity on the mGluR5, an experiment was carried out to check the change in the intracellular Ca^2+ level using the HEK293 cell line permanently overexpressing the mGluR5. The cells in the cell culture medium were aliquoted into a 384-well plate coated with poly-D-lysine and cultured in a 37° C. incubator supplied with 5% CO2. The next day, the medium was removed and a dye loading buffer—in which a reagent capable of measuring Ca^2+ was dissolved—was added, and then incubated at 37° C. for 60 minutes. The test compounds were dissolved in 100% DMSO at a final concentration of 10 mM to make a stock solution. The starting concentration of […] was prepared from the stock solution, followed by serial dilutions to prepare working solutions (test compound working solutions). The test compound working solutions were added to the cells that were incubated in the dye loading buffer, which were maintained for 30 minutes at room temperature in a light-shielding state before measurement. The Ca^2+ level change induced by L-glutamate at EC80 concentration was measured for 2 minutes using FLIPR Tetra (MDS Analytical Technologies). The fluorescent Ca^2+ signal values in the presence of the test compounds were normalized to the fluorescent signal elicited by […] concentration of L-glutamate as 100% and that elicited by vehicle as 0% to estimate % inhibition of the test compounds. The efficacy of the test compounds was calculated as IC50 values and represented in Table 1. (+: 1,000-2,000 nM, ++: 500-1,000 nM, +++: 100-500 nM, ++++: less than 100 nM).

T1 sequence (P28223 whole entry): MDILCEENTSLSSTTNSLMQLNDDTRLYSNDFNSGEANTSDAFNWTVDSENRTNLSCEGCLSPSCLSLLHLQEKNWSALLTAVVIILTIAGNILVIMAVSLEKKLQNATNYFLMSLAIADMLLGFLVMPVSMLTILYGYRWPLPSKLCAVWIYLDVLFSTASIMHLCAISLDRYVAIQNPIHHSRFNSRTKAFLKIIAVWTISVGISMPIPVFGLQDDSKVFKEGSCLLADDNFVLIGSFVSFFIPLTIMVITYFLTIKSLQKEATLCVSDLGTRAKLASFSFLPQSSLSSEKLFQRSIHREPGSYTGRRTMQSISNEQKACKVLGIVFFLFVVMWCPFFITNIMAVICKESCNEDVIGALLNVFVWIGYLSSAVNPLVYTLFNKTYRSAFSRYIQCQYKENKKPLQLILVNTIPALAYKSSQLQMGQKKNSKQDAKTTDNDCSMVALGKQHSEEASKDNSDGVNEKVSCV

| IC50 (human 5-HT2AR) | IC50 (mGluR5) | Compound |
| --- | --- | --- |
| < 0.1 µM | 0.1 to 0.5 µM | O=C(NC[C@@H]1CCOC1)c1ccc(C#Cc2ccc(F)cc2)cc1 [Example 102, (S)-4-((4-fluorophenyl)ethynyl)-N-((tetrahydrofuran-3-yl)methyl)benzamide] |
| 0.1 to 0.5 µM | 0.5 to 1 µM | O=C(NCC1(N2CCOCC2)CCCC1)c1ccc(C#Cc2ccccc2F)cc1 [Example 23, 4-((2-fluorophenyl)ethynyl)-N-((1-morpholinocyclopentyl)methyl)benzamide] |
| 0.5 to 1 µM | < 0.1 µM | CC1(CNC(=O)c2ccc(C#Cc3ccccc3F)cc2)CCOCC1 [Example 36, 4-((2-fluorophenyl)ethynyl)-N-((4-methyltetrahydro-2H-pyran-4-yl)methyl)benzamide] |
| < 0.1 µM | 0.1 to 0.5 µM | CCC1(CNC(=O)c2ccc(C#Cc3ccc(F)cc3F)cc2)COC1 [Example 122, 4-((2,4-difluorophenyl)ethynyl)-N-((3-ethyloxetan-3-yl)methyl)benzamide] |
| 0.1 to 0.5 µM | < 0.1 µM | C[C@@H](NC(=O)c1ccc(C#Cc2ccccc2F)cc1)C1CCOCC1 [Example 47, (R)-4-((2-fluorophenyl)ethynyl)-N-(1-(tetrahydro-2H-pyran-4-yl)ethyl)benzamide] |
| 0.1 to 0.5 µM | < 0.1 µM | O=C(NC[C@H]1CCCOC1)c1ccc(C#Cc2ccc(F)cc2)cc1 [Example 99, (R)-4-((4-fluorophenyl)ethynyl)-N-((tetrahydro-2H-pyran-3-yl)methyl)benzamide] |
| 1 to 2 µM | 1 to 2 µM | O=C(NCC1(F)COC1)c1ccc(C#Cc2ccccc2F)cc1 [Example 103, N-((3-fluorooxetan-3-yl)methyl)-4-((2-fluorophenyl)ethynyl)benzamide] |
| 0.1 to 0.5 µM | 0.1 to 0.5 µM | O=C(NCC1(CC2CC2)CCOCC1)c1ccc(C#Cc2ccccc2F)cc1 [Example 29, N-((4-(cyclopropylmethyl)tetrahydro-2H-pyran-4-yl)methyl)-4-((2-fluorophenyl)ethynyl)benzamide] |
| 1 to 2 µM | < 0.1 µM | O=C(NCC1CCOCC1)c1ccc(C#Cc2ccccc2F)cc1F [Example 35, 2-fluoro-4-((2-fluorophenyl)ethynyl)-N-((tetrahydro-2H-pyran-4-yl)methyl)benzamide] |
| < 0.1 µM | < 0.1 µM | O=C(NC[C@H]1CCCO1)c1ccc(C#Cc2ccc(F)cc2F)cc1 [Example 114, (R)-4-((2,4-difluorophenyl)ethynyl)-N-((tetrahydrofuran-2-yl)methyl)benzamide] |
| 0.5 to 1 µM | 0.1 to 0.5 µM | CC1(C)CC(CNC(=O)c2ccc(C#Cc3ccccc3F)cc2)CCO1 (stereo not shown) [Example 67, N-((2,2-dimethyltetrahydro-2H-pyran-4-yl)methyl)-4-((2-fluorophenyl)ethynyl)benzamide] |
| 0.1 to 0.5 µM | 0.5 to 1 µM | O=C(NCC1(NC2CC2)CCCCCC1)c1ccc(C#Cc2ccc(F)cn2)cc1 [Example 15, N-((1-(cyclopropylamino)cycloheptyl)methyl)-4-((5-fluoropyridin-2-yl)ethynyl)benzamide] |
| 0.5 to 1 µM | 0.1 to 0.5 µM | O=C(NC[C@@H]1CCCOC1)c1ccc(C#Cc2ccc(F)cc2)cc1 [Example 100, (S)-4-((4-fluorophenyl)ethynyl)-N-((tetrahydro-2H-pyran-3-yl)methyl)benzamide] |
| 0.5 to 1 µM | 0.1 to 0.5 µM | CC1(C)CC(CNC(=O)c2ccc(C#Cc3ccccc3F)cc2)CO1 (stereo not shown) [Example 70, N-((5,5-dimethyltetrahydrofuran-3-yl)methyl)-4-((2-fluorophenyl)ethynyl)benzamide] |
| 0.5 to 1 µM | < 0.1 µM | O=C(NCC1(F)CCOCC1)c1ccc(C#Cc2ccccc2F)cc1 [Example 48, 4-((2-fluorophenyl)ethynyl)-N-((4-fluorotetrahydro-2H-pyran-4-yl)methyl)benzamide] |
| 1 to 2 µM | 1 to 2 µM | O=C(NCC1(NCC(F)(F)F)CCCCC1)c1ccc(C#Cc2ccncc2)cc1 [Example 31, 4-(pyridin-4-ylethynyl)-N-((1-((2,2,2-trifluoroethyl)amino)cyclohexyl)methyl)benzamide] |

| IC50 (human 5-HT2AR) | IC50 (mGluR5) | Compound |
| --- | --- | --- |
| 0.1 to 0.5 µM | < 0.1 µM | CC1(CNC(=O)c2ccc(C#Cc3ccc(F)cc3F)cc2)CCCC1 [Example 108, 4-((2,4-difluorophenyl)ethynyl)-N-((1-methylcyclopentyl)methyl)benzamide] |
| < 0.1 µM | < 0.1 µM | CC1(CNC(=O)c2ccc(C#Cc3ccc(F)cc3F)cc2)CCC1 [Example 107, 4-((2,4-difluorophenyl)ethynyl)-N-((1-methylcyclobutyl)methyl)benzamide] |
| < 0.1 µM | 0.1 to 0.5 µM | O=C(NCC1(NC2CC2)CCCCCC1)c1ccc(C#Cc2ccc(F)cc2)cc1 [Example 14, N-((1-(cyclopropylamino)cycloheptyl)methyl)-4-((4-fluorophenyl)ethynyl)benzamide] |
| 0.1 to 0.5 µM | < 0.1 µM | O=C(NCC1CCCCO1)c1ccc(C#Cc2ccccc2F)cc1 (stereo not shown) [Example 54, 4-((2-fluorophenyl)ethynyl)-N-((tetrahydro-2H-pyran-2-yl)methyl)benzamide] |
| 0.1 to 0.5 µM | 1 to 2 µM | O=C(NCC1(NC2CC2)CCC1)c1ccc(C#Cc2ccncc2)c(F)c1 [Example 7, N-((1-(cyclopropylamino)cyclobutyl)methyl)-3-fluoro-4-(pyridin-4-ylethynyl)benzamide] |
| 0.5 to 1 µM | < 0.1 µM | O=C(NCC1CCC(F)(F)CC1)c1ccc(C#Cc2ccc(F)cc2F)cc1 [Example 121, N-((4,4-difluorocyclohexyl)methyl)-4-((2,4-difluorophenyl)ethynyl)benzamide] |
| 0.1 to 0.5 µM | < 0.1 µM | O=C(NC[C@H]1CCCO1)c1ccc(C#Cc2ccc(F)cc2)cc1 [Example 110, (R)-4-((4-fluorophenyl)ethynyl)-N-((tetrahydrofuran-2-yl)methyl)benzamide] |
| < 0.1 µM | 1 to 2 µM | O=C(NCC1(NC2CC2)CCCCC1)c1ccc(C#Cc2ccc(F)cc2)cc1 [Example 19, N-((1-(cyclopropylamino)cyclohexyl)methyl)-4-((4-fluorophenyl)ethynyl)benzamide] |
| 0.5 to 1 µM | < 0.1 µM | O=C(NCC1(O)CCCCC1)c1ccc(C#Cc2ccccc2F)cc1 [Example 32, 4-((2-fluorophenyl)ethynyl)-N-((1-hydroxycyclohexyl)methyl)benzamide] |
| 0.5 to 1 µM | 0.1 to 0.5 µM | COC(=O)CCC1(CNC(=O)c2ccc(C#Cc3ccccc3F)cc2)CCCCC1 [Example 59, methyl 3-(1-((4-((2-fluorophenyl)ethynyl)benzamido)methyl)cyclohexyl)propanoate] |
| 0.5 to 1 µM | 0.5 to 1 µM | O=C(O)CCC1(CNC(=O)c2ccc(C#Cc3ccccc3F)cc2)CCOCC1 [Example 60, 3-(4-((4-((2-fluorophenyl)ethynyl)benzamido)methyl)tetrahydro-2H-pyran-4-yl)propanoic acid] |
| 1 to 2 µM | < 0.1 µM | NC(=O)CC1(CNC(=O)c2ccc(C#Cc3ccccc3F)cc2)CCCCC1 [Example 77, N-((1-(2-amino-2-oxoethyl)cyclohexyl)methyl)-4-((2-fluorophenyl)ethynyl)benzamide] |
| 0.1 to 0.5 µM | 0.1 to 0.5 µM | CNC(=O)CC1(CNC(=O)c2ccc(C#Cc3ccccc3F)cc2)CCCCC1 [Example 80, 4-((2-fluorophenyl)ethynyl)-N-((1-(2-(methylamino)-2-oxoethyl)cyclohexyl)methyl)benzamide] |
| 1 to 2 µM | < 0.1 µM | O=C(NCC1(F)CCCCC1)c1ccc(C#Cc2ccc(F)cc2F)cc1 [Example 73, 4-((2,4-difluorophenyl)ethynyl)-N-((1-fluorocyclohexyl)methyl)benzamide] |
| < 0.1 µM | 0.5 to 1 µM | O=C(NC[C@@H]1CCOC1)c1ccc(C#Cc2ccc(F)cc2F)cc1 [Example 113, (S)-4-((2,4-difluorophenyl)ethynyl)-N-((tetrahydrofuran-3-yl)methyl)benzamide] |
| 0.1 to 0.5 µM | < 0.1 µM | O=C(NC[C@H]1CCOC1)c1ccc(C#Cc2ccc(F)cc2)cc1 [Example 101, (R)-4-((4-fluorophenyl)ethynyl)-N-((tetrahydrofuran-3-yl)methyl)benzamide] |
